Assay results: patent US20260327655A1, “SMALL-MOLECULE REGULATED ALTERNATIVE SPLICING” (priority 2023, published 2026)
Read-outs that look alike come from different tables or passages of the source.

How the values were obtained:
Format in all cases: cell-based
RS1-10 = assay: Dose-response profiling assay, RS1-10 Flp-In-293 cell line; conditions: 18 hours, FIGS. 9D-9F
Method: Single-copy insertion of an switch construct and subsequent cell-line generation was performed in Flp-In-293 cells according to manufacturer's protocols. The RS1-10 sequence fused to a Firefly Luciferase gene was cloned into a Flp-In compatible pcDNA5/FRT expression vector with a CMV promoter and BGH polyadenylation signal. Resulting Flp-In cell line carried a single-copy expression cassette (RSwitch-controlled) integrated into the genome. The RS1-10 Flp-In cell line was cultured in DMEM+10% FBS, collected after trypsinization, and then dispensed into 96-well plates (cell culture-treated). Each well of the plate was seeded with 1.0×10^5 cells in 100 μL culture medium. Subsequently, either DMSO vehicle or a splice modulator compound at specified doses was added to the wells of the plate. Triplicate wells were used for each condition tested in the experiment. Plates were then incubated for 18 hours in a tissue culture incubator (5% CO2, 37° C.). Endpoint analysis was performed by adding 100 uL of a Luciferase substrate, such as Steady-Luc Firefly Luciferase substrate, to each well of the assay plate. The liquid contents of each was transferred to a 96-well plate, mixed again for 2 min on an orbital shaker, and incubated at room temperature for 5 min. Finally, the luminescent signal from each well was measured with a plate reader. Each plotted data point on a graph in a figure represents a mean of 3 wells+/−standard deviation normalized to vehicle controls. A nonlinear regression curve fit of the plotted data points was generated in graphing software.

[1] = test system: RS1-10 minigene (Firefly Luciferase), HEK-293T cells; assay: Luciferase induction assay, RS1-10 with splice modulator compounds in HEK-293T cells; conditions: Homo sapiens
Method: (§1) HEK-293T cells were cultured in DMEM+10% FBS, collected after trypsinization, and then dispensed into 96-well plates (cell culture-treated). Each well of the plate was seeded with 1.0×10^5 cells in 100 μL culture medium. After a 1-hour incubation in a tissue culture incubator (5% CO2, 37 degrees C.), plasmid DNA was complexed with a transfection reagent, such as Lipofectamine 3000, and added to respective wells on the plate. Each well received an equivalent of 100 ng of plasmid DNA complexed with 0.15 μL Lipofectamine. Triplicate wells were used for each condition tested in the experiment. The plasmid utilized in the experiment encoded a CMV promoter upstream of the RS I-10 variant that controlled the expression of a Firefly Luciferase gene followed by a SV40 polyadenylation signal. After a 10-minute incubation at room temperature, either DMSO vehicle or specified compound at specified dose was added to the wells of the plate. Plates were then incubated for 18 hours in a tissue culture incubator. Endpoint analysis was performed by adding 100 uL Steady-Luc Firefly Luciferase substrate to each well of the assay plate. After mixing, the liquid contents of each was transferred to a 96-well plate, mixed again for 2 min on an orbital shaker, and incubated at room temperature for 5 min. Finally, the luminescent signal from each well was measured with a with PerkinElmer Envision plate reader. The results of this assay show RS1-10 responded to the majority of the splice modulator compounds used in a dose responsive manner (FIG. 9C). Bars represent mean+/−standard deviation of 3 wells normalized to vehicle controls.

[2] = test system: RS3-13 minigene (Firefly Luciferase), HEK-293T cells; assay: Luciferase induction assay, RS3-13 with splice modulator compounds in HEK-293T cells; conditions: Homo sapiens
Method: as §1, with “RS3-13” for “the RS I-10 variant”, “RS3-13” for “RS1-10”, “used” for “used in a dose responsive manner”, “14D)” for “9C).”

[3] = test system: RS2-3 minigene (Firefly Luciferase), HEK-293T cells; assay: Luciferase induction assay, RS2-3 with splice modulator compounds in HEK-293T cells; conditions: Homo sapiens
Method: as §1, with “RS2-3” for “RS I-10”, “RS2-3” for “RS1-10”, “used” for “used in a dose responsive manner”, “13C)” for “9C).”

[4] = RS1-10, 100 nM, 18 hours, n of 3, read-out: Mean fold-induction of luciferase (relative to vehicle control)
[5] = RS1-10, 1,000 nM, 18 hours, n of 3, read-out: Mean fold-induction of luciferase (relative to vehicle control)
[6] = RS3-13, 100 nM, 18 hours, n of 3, read-out: Mean fold-induction of luciferase (relative to vehicle control)
[7] = RS3-13, 1,000 nM, 18 hours, n of 3, read-out: Mean fold-induction of luciferase (relative to vehicle control)
[8] = RS2-3, 100 nM, 18 hours, n of 3, read-out: Mean fold-induction of luciferase (relative to vehicle control)
[9] = RS2-3, 1,000 nM, 18 hours, n of 3, read-out: Mean fold-induction of luciferase (relative to vehicle control)
[10] = 18 h, read-out: Mean fold-induction of luciferase (relative to vehicle control)

Structure (SMILES) | fold-induction of luciferase signal, dose response (RS1-10) | fold induction at 0.1 µM [1, 4] | fold induction at 1 µM [1, 5] | fold induction at 0.1 µM [2, 6] | fold induction at 1 µM [2, 7] | fold induction at 0.1 µM [3, 8] | fold induction at 1 µM [3, 9] | fold induction at 0.1 µM [1, 10] | fold induction at 1 µM [1, 10] | fold induction at 0.1 µM [2, 10] | fold induction at 1 µM [2, 10] | fold induction at 0.1 µM [3, 10] | fold induction at 1 µM [3, 10]
Cn1cc2cc(-c3ccc(-c4ccc(C5CN(C6CCOCC6)C5)nn4)c(O)c3)ccc2n1 [22 A, 5-(2-methyl-2H-indazol-5-yl)-2-{6-[1-(oxan-4-yl)azetidin-3-yl]pyridazin-3-yl}phenol] | increase in fold-induction of luciferase signal with increasing concentrations | – | – | – | – | – | – | – | – | – | – | – | –
CCN1CC(c2ccc(-c3ccc(-c4cc(C)c5nn(C)cc5c4)cc3O)nn2)C1 [34 A, 5-(2,7-dimethyl-2H-indazol-5-yl)-2-[6-(1-ethylazetidin-3-yl)pyridazin-3-yl]phenol] | increase in fold-induction of luciferase signal with increasing concentrations | – | – | – | – | – | – | – | – | – | – | – | –
Cc1cn2nc(-c3ccc(-c4ccc(C5CNC5)nn4)c(O)c3)cc(C)c2n1 [Compound 3A] | – | 31.7 | 94.7 | 1.81 | 10.2 | 2.86 | 17.6 | – | – | – | – | – | –
Cc1cc(-c2ccc(-c3ccc(C4CNC4)nn3)c(O)c2)cc2cn(C)nc12 [Compound 6A] | – | 29.4 | 69.6 | 1.69 | 7.94 | 2.54 | 13.9 | – | – | – | – | – | –
Cc1cn2cc(-c3cc(O)c(-c4ccc(C5CNC5)nn4)cc3F)cc(F)c2n1 [Compound 8A] | – | 41.5 | 79.2 | 2.11 | 9.79 | 4.1 | 16 | – | – | – | – | – | –
Cc1cn2cc(-c3ccc(-c4ccc(C5CNC5)nn4)c(O)c3F)cc(F)c2n1 [Compound 10A] | – | 65.9 | 96 | 10.1 | 43.6 | 11.1 | 29.2 | – | – | – | – | – | –
Cc1cn2cc(-c3ccc(-c4ccc(C5CN(C(C)C)C5)nn4)c(O)c3)cc(F)c2n1 [Compound 15A] | – | 79 | 82 | 20.6 | 54.5 | 17 | 39.4 | – | – | – | – | – | –
CCN1CC(c2ccc(-c3ccc(-c4cn5cc(C)nc5c(C)n4)cc3O)nn2)C1 [Compound 32A] | – | 53.5 | 83.1 | 3.24 | 23 | 5.9 | 23.3 | – | – | – | – | – | –
Cc1cn2cc(-c3ccc(-c4ccc(C5CN(C6CCOC(C)(C)C6)C5)nn4)c(O)c3)cc(F)c2n1 (centres unmarked) [Compound 86A] | – | 56.1 | 85.1 | 7.54 | 31.3 | 7.86 | 27.7 | – | – | – | – | – | –
Cc1cn2cc(-c3ccc(-c4ccc(C5CN(Cc6cocn6)C5)nn4)c(O)c3)cc(F)c2n1 [Compound 101A] | – | 57.5 | 86.8 | 6 | 34.2 | 8.48 | 31.5 | – | – | – | – | – | –
Cc1cn2cc(-c3nc(=O)n4cc(N5CCNCC5)cc(C)c4n3)cc(F)c2n1 [Compound 108B] | – | 1.16 | 1.43 | 1.41 | 1.66 | 1.65 | 1.76 | – | – | – | – | – | –
Cc1cn2cc(-c3nc(=O)n4cc(C5=CCNCC5)ccc4n3)cc(F)c2n1 [Compound 111B] | – | – | – | – | – | – | – | 3.06 | 48.4 | 1.32 | 1.63 | 1.6 | 2.97
Cc1cn2cc(-c3nc(=O)n4cc(N5CCN[C@@H](C)C5)cc(C)c4n3)cc(F)c2n1 [Compound 117B] | – | 52.1 | 73.5 | 22.8 | 55.6 | 15.2 | 39.9 | – | – | – | – | – | –
Cc1cn2cc(-c3nc(=O)n4cc(N5CCN[C@@H](C)C5)cc(F)c4n3)cc(C)c2n1 [Compound 121B] | – | 24.6 | 73.5 | 9.95 | 46 | 9.41 | 28.8 | – | – | – | – | – | –
Cc1cn2cc(-c3nc(=O)n4cc(N5CCNCC5)ccc4n3)cc(C)c2n1 [Compound 126B] | – | 2.06 | 41.5 | 3.46 | 25.2 | 5.18 | 17.8 | – | – | – | – | – | –
Cc1cc2cc(-c3nc(=O)n4cc(N5CCNC(C)(C)C5)cc(F)c4n3)cc(C)n2n1 [Compound 135B] | – | 16.1 | 48.8 | 5.99 | 16.1 | 7.61 | 14.7 | – | – | – | – | – | –
Cc1cc2cc(-c3ccc(-c4ccc(C5CN(C6CCOCC6)C5)nn4)c(O)c3)ccn2n1 [Compound 192A] | – | 51.3 | 70.8 | 2.18 | 13.4 | 4.97 | 22.7 | – | – | – | – | – | –
